Laboratory results reported in patent US20140005070A1, “MARKERS ASSOCIATED WITH CYCLIN-DEPENDENT KINASE INHIBITORS” (Novartis AG, priority 2011, published 2014).
“Also recorded” adds a separate entry of the source. Starred links: 1 amine or outer side, 2 acyl side, 3 side chain; linkers in the order of their positions; H or OH if unused. Positions of bridges follow the written chain, without caps; N, C: chain ends. Non-standard residues stand in square brackets, D forms with d. Residues, ends and D or L forms follow the SMILES beside them. Chains are numbered I, II in the order given. Actinocin(9to1) = Cc1c2oc3c(C)ccc(C(=O)[*:1])c3nc-2c(C(=O)[*:2])c(N)c1=O; NMeV = CN[C@H](C(=O)O)C(C)C; Sar = CNCC(=O)O

Experiments:
MCL1 protein = test: Western blot of anti-apoptotic and pro-apoptotic family members (FIG. 5); type: cell-based; conditions: lung cancer cell line
Method: After treatment with a CDKI, cells were lysed in modified RIPA buffer containing 50 mM TRIS pH 7.4, 150 mM NaCl, 1 mM EDTA, 1% Brij-35, 0.1% deoxycholate, protease inhibitors (Roche Molecular Biochemicals, Mannheim, Germany). SDS-PAGE (4-12% gel) was used to resolve the proteins in the lysate. After electrophoresis, the proteins were electrotransferred onto a polyvinylidene fluoride microporous membrane and immunodetected using standard procedures. FIG. 4 is a Western blot of the multiple myeloma line NCI-H929, treated with CDKI(7) or DMSO and gene expression analyzed at certain time points during the treatment. […] Thus, the reduction in expression of genes in response to CDKI seen at the mRNA level by microarray is confirmed at the protein level by Western blotting.
FIG. 5 is a Western blot comparing the reduction of expression of anti-apoptotic and pro-apoptotic family members after treatment with CDKI(8).

MEPCE [1] = test: MEPCE expression after treatment with CDK9 / transcription elongation inhibitors (FIG. 3); type: cell-based
MEPCE [2] = test: Dog toxicology study, TaqMan mRNA in white blood cells after CDKI(12): MEPCE; type: in vivo
Method: (§1) As part of a dog toxicology study, the pharmacodynamic markers MEPCE, MYC and MCL1 were measured by TaqMan® in white blood cells at various time points after CDKI(12) treatment.
The study had three groups of three dogs each. Dogs in Group 1 (#1001, #1002, and #1003) were treated with vehicle, dogs in Group 3 (#3001, #3002, and #3003) were treated with CDKI(12) at 0.1 mg/kg and dogs in Group 5 (#5001, #5002, and #5003) were treated with CDKI(12) at 0.15 mg/kg. Samples were collected before treatment 0 hour timepoint; 4 hours, 8 hours and 24 hours after treatment, for a total of 12 samples per group. Blood samples were received frozen in QIAGEN RNAprotect® Animal Blood tubes (Cat. #76554). RNA samples were extracted using the QIAGEN RNeasy® Protect Animal Blood kit (Cat. #73224). RNA samples were quantified using the RNA Quant-iT RNA assay® from Invitrogen (Cat. #Q32852) and read on an Invitrogen Qubit fluorometer (Cat. #Q32857). First strand cDNA synthesis was performed on 500 ng of RNA in a reaction volume of 20 μl using a High Capacity cDNA Reverse Transcription Kit from Applied Biosystems (Cat. #4368814). The cDNA samples were then diluted to 2 ng/μl (10 ng in 5 μl in each reaction). Each TaqMan® reaction contained: 5 μl of cDNA, 1.25 μl of each probe (18S rRNA and gene of interest), 5 μl of water and 12.5 μl of TaqMan® Gene Expression Master Mix from Applied Biosystems (Cat. #4369016) for a total volume of 25 μl. TaqMan® reactions were run in triplicates on an ABI 7500® machine. The 18S rRNA level was used as an endogenous control to correct for variations in cDNA input. The relative quantification method was used to analyze the data; this method uses one sample as a calibrator sample and express mRNA levels relative to that sample. The results are expressed as RQ values (Relative Quantification) with RQ Min and RQ Max values determining a 95% confidence interval for the RQ value. The samples were grouped according to treatment and time point and data from three dogs, each measured in triplicate, were averaged. The vehicle group at 0 hour timepoint was used as the calibrator sample thus allowing us to measure changes in mRNA levels in response to the test article at various time points. The logarithm of the RQ values are plotted so that increases or decreases from the initial value can be more easily represented; on a logarithmic scale a 10-fold increase or 10-fold decrease in RQ value are represented as +1 and −1 respectively.
We have previously shown that the MEPCE mRNA is particularly sensitive to CDK9 inhibition and any CDKI (see Examples above). […] The mRNA levels were determined by TaqMan® using the relative quantification method. The calibrator sample is vehicle at 0 hour timepoint. […]

MYC = test: Dog toxicology study, TaqMan mRNA in white blood cells after CDKI(12): MYC; type: in vivo; conditions: any of the tested doses (0.1, 0.15 mg/kg), FIG. 10
Method: as §1
(§2) The study had three groups of three dogs each. Dogs in Group 1 (#1001, #1002, and #1003) were treated with vehicle, dogs in Group 3 (#3001, #3002, and #3003) were treated with CDKI(12) at 0.1 mg/kg and dogs in Group 5 (#5001, #5002, and #5003) were treated with CDKI(12) at 0.15 mg/kg. Samples were collected before treatment 0 hour timepoint; 4 hours, 8 hours and 24 hours after treatment, for a total of 12 samples per group. Blood samples were received frozen in QIAGEN RNAprotect® Animal Blood tubes (Cat. #76554). RNA samples were extracted using the QIAGEN RNeasy® Protect Animal Blood kit (Cat. #73224). RNA samples were quantified using the RNA Quant-iT RNA assay® from Invitrogen (Cat. #Q32852) and read on an Invitrogen Qubit fluorometer (Cat. #Q32857). […] The relative quantification method was used to analyze the data; this method uses one sample as a calibrator sample and express mRNA levels relative to that sample. The results are expressed as RQ values (Relative Quantification) with RQ Min and RQ Max values determining a 95% confidence interval for the RQ value. The samples were grouped according to treatment and time point and data from three dogs, each measured in triplicate, were averaged. […]

MCL1 = test: Dog toxicology study, TaqMan mRNA in white blood cells after CDKI(12): MCL1; type: in vivo; conditions: any of the tested doses (0.1, 0.15 mg/kg), two probes, FIG. 11
Method: as §1, §2

Compound | expression of MCL1 protein (MCL1 protein; 2 hours after treatment) | expression of MCL1 protein (MCL1 protein; after 16 hour exposure) | MEPCE expression (MEPCE [1]) | MEPCE mRNA regulation (MEPCE [2]; 0.1 mg/kg, FIG. 9, 0.1 mg/kg) | MEPCE mRNA level at 4 and 8 hours (MEPCE [2]; 0.15 mg/kg, 4 and 8 hours) | MEPCE mRNA level by 24 hours (MEPCE [2]; 0.15 mg/kg, 24 hours) | MEPCE mRNA regulation (MEPCE [2]; 0.15 mg/kg, FIG. 9) | MYC mRNA regulation (MYC) | MCL1 mRNA regulation (MCL1)
N[C@H]1CC[C@H](Nc2cc(-c3cccc(NCc4cccc(F)c4)n3)c(Cl)cn2)CC1 [CDKI(8)] | reduced | further reduced | reduced | – | – | – | – | – | –
COC[C@@H](C)N[C@H]1CC[C@H](Nc2cc(-c3cccc(NCC4(C#N)CCOCC4)n3)c(Cl)cn2)CC1 [CDKI(12)] | – | – | – | less down regulation; also recorded: clear down regulation | reduced | returns to pretreatment levels | clear down regulation | does not show any significant down regulation; also recorded: not significantly down regulated | does not show any significant down regulation; also recorded: not significantly down regulated
Cc1c2oc3c(C)ccc(C(=O)N[C@@H]4C(=O)N[C@H](C(C)C)C(=O)N5CCC[C@H]5C(=O)N(C)CC(=O)N(C)[C@@H](C(C)C)C(=O)O[C@@H]4C)c3nc-2c(C(=O)N[C@@H]2C(=O)N[C@H](C(C)C)C(=O)N3CCC[C@H]3C(=O)N(C)CC(=O)N(C)[C@@H](C(C)C)C(=O)O[C@@H]2C)c(N)c1=O [Actinomycin D, reference compound] (I: T[dV]P[Sar][NMeV] / II: T[dV]P[Sar][NMeV]; ester I:1-I:C, II:1-II:C; linker I:N-II:N via Actinocin(9to1)) | – | – | reduces the expression of MEPCE | – | – | – | – | – | –
